In test [1] the target is T1, 5-hydroxytryptamine receptor 2B (Homo sapiens, UniProt P41595). The test can be described thus: Displacement of [3H]-LSD from human 5-HT2B receptor expressed in HEK cells after 90 mins by microbeta scintillation counting analysis. Format: cell-based.
Test [2] concerns the target T2, 5-hydroxytryptamine receptor 1D (Homo sapiens, UniProt P28221). Description: Displacement of [3H]5-CT from human 5-HT1D receptor expressed in HEKT cells after 90 mins by microbeta scintillation counting analysis. It counts as cell-based.
The target in test [3] is T3, 5-hydroxytryptamine receptor 1E (Homo sapiens, UniProt P28566). The test can be described thus: Displacement of [3H]5-HT from human 5-HT1E receptor expressed in HEK cells after 90 mins by microbeta scintillation counting analysis. It counts as cell-based.
For test [4], the target named is T4, 5-hydroxytryptamine receptor 2C (Homo sapiens, UniProt P28335).
T4 sequence (P28335 whole entry): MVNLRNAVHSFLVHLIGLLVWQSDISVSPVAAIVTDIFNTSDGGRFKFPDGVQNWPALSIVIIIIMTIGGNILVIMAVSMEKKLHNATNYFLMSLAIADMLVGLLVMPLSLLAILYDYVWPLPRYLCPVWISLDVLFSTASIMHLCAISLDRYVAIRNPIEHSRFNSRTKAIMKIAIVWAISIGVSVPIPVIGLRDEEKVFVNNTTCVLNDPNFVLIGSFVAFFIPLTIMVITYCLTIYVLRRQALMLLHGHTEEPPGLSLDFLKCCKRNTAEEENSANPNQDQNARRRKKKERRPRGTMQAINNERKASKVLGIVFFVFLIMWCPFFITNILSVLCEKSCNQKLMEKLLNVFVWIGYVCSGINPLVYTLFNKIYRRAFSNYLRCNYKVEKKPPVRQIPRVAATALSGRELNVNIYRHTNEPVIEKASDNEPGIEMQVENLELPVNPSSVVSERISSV
Description: Displacement of [3H]-Mesulergine from human 5-HT2C receptor expressed in HEKT cells after 90 mins by microbeta scintillation counting analysis. Format: cell-based.

The target in test [5] is T5, 5-hydroxytryptamine receptor 3A (Homo sapiens, UniProt P46098).
T5 sequence (P46098 whole entry): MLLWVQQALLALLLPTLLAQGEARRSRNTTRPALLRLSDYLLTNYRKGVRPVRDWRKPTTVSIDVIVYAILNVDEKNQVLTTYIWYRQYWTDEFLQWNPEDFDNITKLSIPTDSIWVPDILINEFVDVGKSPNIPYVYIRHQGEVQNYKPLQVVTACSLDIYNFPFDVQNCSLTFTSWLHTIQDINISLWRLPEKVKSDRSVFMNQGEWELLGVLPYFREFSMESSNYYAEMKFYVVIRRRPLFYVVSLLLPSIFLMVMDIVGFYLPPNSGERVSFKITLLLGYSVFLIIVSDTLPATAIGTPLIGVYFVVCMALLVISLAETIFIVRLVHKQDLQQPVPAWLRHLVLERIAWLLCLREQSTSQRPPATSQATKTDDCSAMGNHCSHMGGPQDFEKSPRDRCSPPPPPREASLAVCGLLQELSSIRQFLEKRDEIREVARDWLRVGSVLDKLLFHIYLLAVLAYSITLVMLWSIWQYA
The test can be described thus: Displacement of [3H]-GR65630 from human 5-HT3 receptor expressed in HEKT cells after 90 mins by microbeta scintillation counting analysis. Format: cell-based.

Test [6] concerns the target T6, 5-hydroxytryptamine receptor 5A (Homo sapiens, UniProt P47898). The test can be described thus: Displacement of [3H]-LSD from human 5-HT5A receptor expressed in Flp-In CHO cells after 90 mins by microbeta scintillation counting analysis. Format: cell-based.
The target of test [7] is T7, 5-hydroxytryptamine receptor 6 (Homo sapiens, UniProt P50406). Description: Displacement of [3H]-LSD from human 5-HT6 receptor expressed in HEK cells after 90 mins by microbeta scintillation counting analysis. It counts as cell-based.
The target of test [8] is T8, 5-hydroxytryptamine receptor 7 (Homo sapiens, UniProt P34969). The test can be described thus: Displacement of [3H]-LSD from human 5-HT7A receptor expressed in HEK cells after 90 mins by microbeta scintillation counting analysis. It counts as cell-based.
Test [9] has as its target T1, 5-hydroxytryptamine receptor 2B. The test can be described thus: Antagonist activity at 5-HT2B receptor (unknown origin) by calcium release assay. Format: functional.
For test [10], the target named is T9, 5-hydroxytryptamine receptor 1A (Homo sapiens, UniProt P08908).
T9 sequence (P08908 whole entry): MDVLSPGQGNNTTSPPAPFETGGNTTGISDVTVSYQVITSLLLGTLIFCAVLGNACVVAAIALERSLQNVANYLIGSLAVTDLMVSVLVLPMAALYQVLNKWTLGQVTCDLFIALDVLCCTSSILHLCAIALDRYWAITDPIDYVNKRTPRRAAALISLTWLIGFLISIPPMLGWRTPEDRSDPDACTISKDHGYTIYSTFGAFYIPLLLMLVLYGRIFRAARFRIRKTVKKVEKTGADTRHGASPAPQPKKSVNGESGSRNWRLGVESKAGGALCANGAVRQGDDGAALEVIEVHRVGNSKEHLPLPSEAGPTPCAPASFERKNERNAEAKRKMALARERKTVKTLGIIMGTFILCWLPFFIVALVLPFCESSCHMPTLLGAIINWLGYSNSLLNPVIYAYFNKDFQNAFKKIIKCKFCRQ
Description: Antagonist activity at 5-HT1A receptor (unknown origin) by Tango assay. Format: functional.

The target in test [11] is T10, 5-hydroxytryptamine receptor 1B (Homo sapiens, UniProt P28222). The test can be described thus: Displacement of [3H]-LSD from human 5-HT1B receptor expressed in baculovirus infected Sf9 cells.
Test [12] addresses T1, 5-hydroxytryptamine receptor 2B. Description: Displacement of [3H]-LSD from human 5-HT2B receptor expressed in baculovirus infected Sf9 cells.
Test [13] concerns the target T2, 5-hydroxytryptamine receptor 1D. Description: Binding affinity to 5-HT1D receptor (unknown origin) by radioligand binding assay.
Test [14] has as its target T3, 5-hydroxytryptamine receptor 1E. The test can be described thus: Binding affinity to 5-HT1E receptor (unknown origin) by radioligand binding assay.
Test [15] has as its target T11, 5-hydroxytryptamine receptor 2A (Homo sapiens, UniProt P28223). Description: Binding affinity to 5-HT2A receptor (unknown origin) by radioligand binding assay.
Test [16] deals with T4, 5-hydroxytryptamine receptor 2C. The test can be described thus: Binding affinity to 5-HT2C receptor (unknown origin) by radioligand binding assay.
The target in test [17] is T5, 5-hydroxytryptamine receptor 3A. The test can be described thus: Binding affinity to 5-HT3 receptor (unknown origin) by radioligand binding assay.
Test [18] deals with T6, 5-hydroxytryptamine receptor 5A. Description: Binding affinity to 5-HT5A receptor (unknown origin) by radioligand binding assay.
In test [19] the target is T7, 5-hydroxytryptamine receptor 6. Description: Binding affinity to 5-HT6 receptor (unknown origin) by radioligand binding assay.
In test [20] the target is T8, 5-hydroxytryptamine receptor 7. Description: Binding affinity to 5-HT7A receptor (unknown origin) by radioligand binding assay.
The target in test [21] is T11, 5-hydroxytryptamine receptor 2A. Description: Displacement of [3H]Ketanserin from 5-HT2A (unknown origin) receptor after 90 mins by microbeta scintillation counting analysis.
For test [22], the target named is T4, 5-hydroxytryptamine receptor 2C. The test can be described thus: Antagonist activity at 5-HT2C receptor (unknown origin) by calcium release assay. It counts as functional.
Test [23] has as its target T8, 5-hydroxytryptamine receptor 7. Description: Antagonist activity at 5-HT7A receptor (unknown origin) by Tango assay.
The target in test [24] is T10, 5-hydroxytryptamine receptor 1B. The test can be described thus: Displacement of [3H]5-CT from human 5-HT1B receptor expressed in HEK cells after 90 mins by microbeta scintillation counting analysis. Format: cell-based.

Bounds are passed on as bounds.

T11 sequence (P28223 whole entry): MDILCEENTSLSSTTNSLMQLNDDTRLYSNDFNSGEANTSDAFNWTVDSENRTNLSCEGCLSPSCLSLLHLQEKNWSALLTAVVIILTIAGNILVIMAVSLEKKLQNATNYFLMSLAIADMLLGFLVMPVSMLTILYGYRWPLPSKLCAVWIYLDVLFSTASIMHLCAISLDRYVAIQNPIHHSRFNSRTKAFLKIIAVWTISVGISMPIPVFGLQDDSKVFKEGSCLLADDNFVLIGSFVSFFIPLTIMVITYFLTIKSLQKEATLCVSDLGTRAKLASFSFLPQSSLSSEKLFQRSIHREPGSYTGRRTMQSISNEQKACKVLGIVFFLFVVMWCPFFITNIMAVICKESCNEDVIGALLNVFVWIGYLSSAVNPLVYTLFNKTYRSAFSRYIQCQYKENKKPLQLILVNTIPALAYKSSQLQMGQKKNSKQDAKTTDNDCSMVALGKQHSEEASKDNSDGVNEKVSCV
T3 sequence (P28566 whole entry): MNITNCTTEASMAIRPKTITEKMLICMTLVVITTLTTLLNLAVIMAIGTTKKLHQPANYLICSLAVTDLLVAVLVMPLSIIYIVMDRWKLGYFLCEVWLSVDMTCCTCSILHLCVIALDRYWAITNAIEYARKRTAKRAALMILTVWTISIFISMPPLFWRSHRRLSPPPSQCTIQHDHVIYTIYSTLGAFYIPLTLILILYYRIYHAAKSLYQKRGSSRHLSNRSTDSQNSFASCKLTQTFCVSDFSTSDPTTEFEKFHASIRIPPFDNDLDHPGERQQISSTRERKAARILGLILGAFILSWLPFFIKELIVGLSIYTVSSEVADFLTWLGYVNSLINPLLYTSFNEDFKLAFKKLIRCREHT
T2 sequence (P28221 whole entry): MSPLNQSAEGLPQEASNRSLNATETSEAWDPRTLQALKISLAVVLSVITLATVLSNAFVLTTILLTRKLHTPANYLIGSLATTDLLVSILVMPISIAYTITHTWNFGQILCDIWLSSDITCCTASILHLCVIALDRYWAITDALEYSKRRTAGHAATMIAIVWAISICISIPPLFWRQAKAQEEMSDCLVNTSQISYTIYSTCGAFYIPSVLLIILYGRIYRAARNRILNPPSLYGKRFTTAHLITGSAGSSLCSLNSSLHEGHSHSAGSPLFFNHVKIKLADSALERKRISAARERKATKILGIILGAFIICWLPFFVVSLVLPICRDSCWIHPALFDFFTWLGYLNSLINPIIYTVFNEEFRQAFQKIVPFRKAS
T8 sequence (P34969 whole entry): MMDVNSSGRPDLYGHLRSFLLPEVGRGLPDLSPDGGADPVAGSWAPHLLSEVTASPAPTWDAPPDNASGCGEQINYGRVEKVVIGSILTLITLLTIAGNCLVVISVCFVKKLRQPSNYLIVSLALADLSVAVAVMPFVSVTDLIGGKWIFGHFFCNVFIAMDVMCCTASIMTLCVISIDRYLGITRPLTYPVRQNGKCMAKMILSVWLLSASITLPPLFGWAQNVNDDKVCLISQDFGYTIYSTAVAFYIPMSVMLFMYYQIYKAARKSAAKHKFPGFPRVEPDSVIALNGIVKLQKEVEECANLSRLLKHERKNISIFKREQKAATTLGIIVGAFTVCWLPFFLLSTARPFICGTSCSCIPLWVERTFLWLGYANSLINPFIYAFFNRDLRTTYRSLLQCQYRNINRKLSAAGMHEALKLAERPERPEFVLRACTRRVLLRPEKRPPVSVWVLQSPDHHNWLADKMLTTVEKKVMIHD
T1 sequence (P41595 whole entry): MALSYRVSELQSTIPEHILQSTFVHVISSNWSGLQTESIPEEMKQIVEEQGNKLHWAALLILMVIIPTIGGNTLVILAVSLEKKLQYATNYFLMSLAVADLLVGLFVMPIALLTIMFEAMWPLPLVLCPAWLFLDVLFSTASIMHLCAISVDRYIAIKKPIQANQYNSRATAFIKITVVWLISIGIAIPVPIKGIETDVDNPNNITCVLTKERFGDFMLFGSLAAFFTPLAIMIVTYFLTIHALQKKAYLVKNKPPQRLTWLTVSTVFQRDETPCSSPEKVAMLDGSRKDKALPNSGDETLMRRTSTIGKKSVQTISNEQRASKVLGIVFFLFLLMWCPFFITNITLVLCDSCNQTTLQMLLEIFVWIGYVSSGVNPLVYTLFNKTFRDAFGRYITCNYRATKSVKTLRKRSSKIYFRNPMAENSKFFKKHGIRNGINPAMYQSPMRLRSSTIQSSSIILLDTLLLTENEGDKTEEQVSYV
T10 sequence (P28222 whole entry): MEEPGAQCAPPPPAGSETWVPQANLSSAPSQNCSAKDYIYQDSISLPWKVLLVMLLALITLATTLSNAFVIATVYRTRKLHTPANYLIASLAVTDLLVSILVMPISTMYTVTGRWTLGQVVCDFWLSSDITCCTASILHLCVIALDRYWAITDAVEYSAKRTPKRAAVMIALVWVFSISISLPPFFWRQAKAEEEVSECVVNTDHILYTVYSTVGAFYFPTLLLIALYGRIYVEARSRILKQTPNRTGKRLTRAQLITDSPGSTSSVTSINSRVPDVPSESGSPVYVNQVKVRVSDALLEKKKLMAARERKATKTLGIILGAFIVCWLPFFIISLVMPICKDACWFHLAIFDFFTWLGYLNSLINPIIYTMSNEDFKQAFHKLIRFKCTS
T7 sequence (P50406 whole entry): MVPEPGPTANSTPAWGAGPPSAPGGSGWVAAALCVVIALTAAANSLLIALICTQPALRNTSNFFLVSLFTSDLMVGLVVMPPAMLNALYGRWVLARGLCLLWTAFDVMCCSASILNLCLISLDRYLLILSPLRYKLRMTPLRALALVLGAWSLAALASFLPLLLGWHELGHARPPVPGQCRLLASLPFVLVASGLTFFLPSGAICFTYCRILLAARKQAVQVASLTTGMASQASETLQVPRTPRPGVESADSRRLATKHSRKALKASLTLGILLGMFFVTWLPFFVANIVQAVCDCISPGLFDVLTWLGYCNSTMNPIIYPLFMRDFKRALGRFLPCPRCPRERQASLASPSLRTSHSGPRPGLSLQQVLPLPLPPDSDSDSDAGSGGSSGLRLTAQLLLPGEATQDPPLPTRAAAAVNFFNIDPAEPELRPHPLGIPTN
T6 sequence (P47898 whole entry): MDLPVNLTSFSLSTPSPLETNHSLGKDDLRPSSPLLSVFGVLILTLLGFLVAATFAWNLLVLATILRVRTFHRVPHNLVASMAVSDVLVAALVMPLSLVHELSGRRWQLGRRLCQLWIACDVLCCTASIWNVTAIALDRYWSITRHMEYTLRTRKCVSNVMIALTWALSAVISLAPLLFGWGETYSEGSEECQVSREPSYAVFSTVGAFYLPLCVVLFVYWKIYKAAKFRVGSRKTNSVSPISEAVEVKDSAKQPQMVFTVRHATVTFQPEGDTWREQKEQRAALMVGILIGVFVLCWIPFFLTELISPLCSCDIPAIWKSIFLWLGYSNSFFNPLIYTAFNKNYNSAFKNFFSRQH

Turning to `COC(=O)[C@H](Cc1cnc[nH]1)NC(=O)[C@@H]1N=C(c2ccccc2O)S[C@@H]1C`, the Ki was 1.4 µM in test [1]; 0.53 µM in test [2]; 4.6 µM in test [3]; 0.88 µM in test [4]; 3.1 µM in test [5]; greater than 10 µM in [6]. Moreover, the inhibitory constant (Ki) in test [7] and in [8] was greater than 10 µM each time. Further, the half-maximal inhibitory concentration (IC50) in test [9] and in [10] was greater than 10 µM throughout.
Turning to `O=Cc1csc(-c2ccccc2O)n1`, the inhibitory constant (Ki) in test [11] was greater than 10 µM; in test [12], 1.5 µM; in test [13], greater than 10 µM; in [14], greater than 10 µM; in [15] it was greater than 10 µM; in [16], greater than 10 µM. Moreover, the inhibitory constant (Ki) in [17], in test [18], in test [19] and in test [20] was greater than 10 µM each time.
Take `COC(=O)[C@H](Cc1cnc[nH]1)NC(=O)[C@H]1N=C(c2ccccc2O)S[C@@H]1C`: the inhibitory constant (Ki) in test [1] stood at 1 µM; in test [2], 3.3 µM; in test [3], 1.4 µM; in test [21], 0.31 µM; in test [4], 0.82 µM. Further, the IC50 in [9] is 10 µM; in test [22], greater than 10 µM; in [10], greater than 10 µM.
`NC(=O)C1CSC(c2ccccc2O)=N1` (racemic) [PULICATINS G]: the inhibition constant Ki in test [11], in test [13], in test [14], in test [15], in test [16] and in test [17] was greater than 10 µM in each case. Besides, the Ki in test [18], in test [19] and in [20] was greater than 10 µM each time.
`C[C@@H]1SC(c2ccccc2)=N[C@@H]1Cc1c[nH]cn1` (relative stereo): the inhibition constant (Ki) in test [1] came to 0.69 µM; in test [2], 1.6 µM; in [3], 4 µM; in test [4], 0.75 µM; in test [5], 0.077 µM; in test [6], 6.8 µM. The inhibition constant (Ki) in [7] is greater than 10 µM; in test [8], 3.3 µM. Further, the IC50 in test [9], in [23] and in test [10] was greater than 10 µM in each case.
With `C[C@@H]1SC(c2ccccc2)=N[C@H]1Cc1c[nH]cn1` (relative stereo), the inhibitory constant (Ki) in [1] was 0.38 µM; in test [2] it was 0.8 µM; in test [3], greater than 10 µM; in test [21], 5.8 µM; in test [4], 1.2 µM; in [5] it was 0.15 µM. The Ki in test [6], in test [7] and in test [8] was greater than 10 µM in each case. Further, the IC50 is 10 µM in test [9], greater than 10 µM in test [23] and greater than 10 µM in [10].
Consider `C[C@@H]1SC(c2cccs2)=N[C@H]1CO` (relative stereo), for which the inhibitory constant (Ki) was 1.4 µM in test [1]; greater than 10 µM in test [24]; greater than 10 µM in test [2]; greater than 10 µM in [3]; greater than 10 µM in test [21]; 2.2 µM in [4]. In addition, the Ki in test [5], in test [6], in test [7] and in test [8] was greater than 10 µM each time.
As for `CCCCCCCCOc1ccc(C2=N[C@@H](CO)[C@H](C)S2)cc1` (relative stereo), the Ki is greater than 10 µM in test [1]; greater than 10 µM in test [24]; greater than 10 µM in [2]; greater than 10 µM in test [3]; 6.9 µM in test [21]; 3.6 µM in [4]. Besides, the inhibitory constant (Ki) in test [5], in [6], in test [7] and in [8] was greater than 10 µM each time. In test [10], the IC50 is greater than 10 µM.
As for `C[C@@H]1SC(c2ccsc2)=N[C@H]1CO` (relative stereo), the Ki in test [1] is 1.5 µM; in test [24], greater than 10 µM; in test [2], 8.6 µM; in [3], greater than 10 µM; in [21], greater than 10 µM; in test [4], greater than 10 µM. In addition, the inhibitory constant (Ki) in test [5] is 6.7 µM; in [6] it was 8.2 µM; in test [7], greater than 10 µM; in [8], greater than 10 µM.
As for `OC[C@@H]1CSC(c2ccccc2O)=N1` [AERUGINE], the inhibition constant Ki in test [11], in test [13], in test [14], in [15], in test [16] and in test [17] was greater than 10 µM throughout. Moreover, the inhibition constant Ki in [18], in test [19] and in test [20] was greater than 10 µM each time.
Turning to `NC(=O)c1csc(-c2ccccc2O)n1` [PULICATINS F], the Ki in test [11], in test [13], in test [14], in [15], in test [16] and in [17] was greater than 10 µM each time. The Ki in [18], in test [19] and in test [20] was greater than 10 µM throughout.
`C[C@@H]1SC(c2ccccc2O)=N[C@H]1[C@@H]1SC[C@](C)(C(=O)O)N1C` [WATASEMYCINS A]: the Ki was greater than 10 µM in test [11]; 4.7 µM in test [12]; greater than 10 µM in [13]; greater than 10 µM in [14]; greater than 10 µM in [15]; greater than 10 µM in test [16]. Further, the inhibitory constant (Ki) in test [17], in [18], in [19] and in [20] was greater than 10 µM in each case.
Consider `C[C@@H]1SC(c2ccccc2O)=N[C@H]1[C@H]1SC[C@](C)(C(=O)O)N1C` [WATASEMYCINS B], for which the Ki in [11] is greater than 10 µM; in test [12], 3.9 µM; in test [13] it was greater than 10 µM; in test [14] it was greater than 10 µM; in [15], greater than 10 µM; in [16], greater than 10 µM. Also, the Ki in [17], in test [18], in test [19] and in [20] was greater than 10 µM each time.

(Values after ChEMBL document CHEMBL4190286, “Modulating the Serotonin Receptor Spectrum of Pulicatin Natural Products” (J Nat Prod, 2017).)
